The values below come from EP1407768A2, “The potassium channel opener retigabine for the treatment of diseases” (GLAXO GROUP LIMITED, priority 1999, dated 2001).

Test [1] concerns pentylene tetrazol-induced seizures in rats. The settings on record: protection against pentylene tetrazol-induced seizures in rats; cited from earlier work.
Test [2] deals with T1, KCNQ2/3 potassium channel (Homo sapiens, UniProt O43525+O43526).
T1 construct: expressed in transfected cells; host or cells: Xenopus laevis oocytes injected with capped cRNA (KCNQ2 in pCIN3, KCNQ3 in pCIH6)
As to the kind of experiment: Two-microelectrode voltage-clamp of Xenopus oocytes expressing equimolar KCNQ2 plus KCNQ3. It is filed as cell-based. The settings on record: for fold induction at 10 µM: read-out: increase of outward KCNQ current amplitude, 10µM retigabine; for increase of the rate of current activation: data fitted to a single exponential. The text has this: Human KCNQ2 and KCNQ3 potassium channels were cloned from a human brain CDNA library using standard methodology. All clones were sequenced and were identical to those reported in the literature (Charlier, C., Singh, N.A., Ryan, S.G., Lewis, T.B., Reus, B. E., Leach, R.J. Leppert, M. (1998). A pore mutation in a novel KQT-like potassium channel gene in an idiopathic epilepsy family. Nature Genetics 18: 53-55 and Singh, N.A., Charlier, C., Stauffer, D., DuPont, B.R., Leach, R.J., Melis, R., Ronen, G.M., Bjerre, I., Quattlebaum, T., Murphy, J.V., McHarg, M.L., Gagnon, D., Rosales, T.O., Peiffer, A., Anderson, E & Leppert, M. (1998) Nature Genetics, 18: 25-29).
Adult female Xenopus laevis (Blades Biologicals) were anaesthetised using 0.2% tricaine (3-aminobenzoic acid ethyl ester), killed and the ovaries rapidly removed. Oocytes were de-folliculated by collagenase digestion (Sigma type I, 1.5 mg ml^-1) in divalent cation-free OR2 solution (82.5mM NaCl, 2.5mM KCI, 1.2mM NaH2PO4, 5mM HEPES; pH 7.5 at 25°C). Single stage V and VI oocytes were transferred to ND96 solution (96mM NaCl, 2mM KCI, 1mM MgCl2, 1.8mM CaCl2, 5mM HEPES; pH 7.5 at 25°C) which contained 50µg ml^- ^1 gentamycin and stored at 18°C.
KCNQ2 (in pCIN3 vector) and KCNQ3 (in pCIH6) were linearised and transcribed to RNA using T7 or T3 polymerase (Promega Wizard kit). m'G(5')pp(5')GTP capped cRNA was injected into oocytes (20-50nl of 1µgµl^-1 RNA per oocyte) and whole-cell currents were recorded using two-microelectrode voltage-clamp (Geneclamp amplifier, Axon instruments Inc.) 3 to 5 days post-RNA injection. […] In all experiments oocytes were voltage-clamped at a holding potential of -90mV in ND96 solution (superfused at 2ml per min.) and test compounds were applied by addition to this extracellular solution. Current-voltage curves were constructed by applying 800ms voltage-clamp pulses from the holding potential of -90mV to test potentials between -85mV and +30mV..
Whole-cell currents were recorded from oocytes expressing KCNQ2 alone, KCNQ3 alone and an equimolar combination of KCNQ2 plus KCNQ3. Mean current amplitude (at +20mV) was 152 +/- 21 nA for KCNQ2 alone, 157 +/-19nA for KCNQ3 alone and 1467 +/- 420nA for KCNQ2 & KCNQ3. Further characterisation of the KCNQ2/KCNQ3 heteromeric channel (current-voltage curve, conductance plot, linopirdine block) gave similar results to those reported in the literature (Yang, W.-P., Levesque, P.C., Little, W.A., Conder, M.L., Ramakrishnan, P., Neubauer, M.G. & Blanar, M.A, (1998) Functional expression of two KvLQT1-related potassium channels responsible for an inherited idiopathic epilepsy. J. Biol. Chem., 31: 19419-19423 and Wang, H.-S., Pan, Z., Shi, W., Brown, B.S.,. Wymore, R.S., Cohen, I.S., Dixon, J.E. & McKinnon, D (1998) KCNQ2 and KCNQ3 potassium channel subunits: molecular correlates of the M-channel. Science 282: 1890-1893).
The effects of retigabine were studied in oocytes expressing equimolar KCNQ2 plus KCNQ3. Application of 10µM retigabine led to a pronounced 20mV hyperpolarising shift in the threshold for KCNQ current activation (n=5), such that an augmentation of KCNQ current was seen over the normal physiological range of membrane potentials. For example, at a test potential of -60mV, outward KCNQ current amplitude increased 8-fold in the presence of retigabine (6.2-fold at -70mV; 7.1-fold at -50mV; n=5). These changes in KCNQ current amplitude were associated with an increase in the rate of current activation: Retigabine increased the rate of current activation 15-fold at a test potential of -40mV, and 3-fold at a test potential of -30mV (data fitted to a single exponential in each case).
Application of retigabine led to a marked alteration in the properties of the KCNQ2/3 tail currents. In these experiments the voltage clamp protocols comprised a 1s prepulse from -100mV to +40mV to fully activate the KCNQ2/3 channel, followed by a 6s pulse to test potentials between -30mV and -110mV.

In test [3] the test system is carageenan model of inflammatory pain. As to the kind of experiment: Carageenan model of inflammatory pain. The format is in vivo. An excerpt: Br. J. Pharmacol. 120: P78).
Test [4] addresses T1, KCNQ2/3 potassium channel. As to the kind of experiment: Current clamp of oocytes expressing KCNQ2 plus KCNQ3: hyperpolarisation of the cell. The format is cell-based.
For the next test, the target named is T2, KCNQ2 (Homo sapiens, UniProt O43526).
T2 construct: expressed in transfected cells; host or cells: Xenopus oocytes, expression vector pSP64t
As to the kind of experiment: Voltage-clamp of Xenopus oocytes expressing KCNQ2 alone (pSP64t vector). It is filed as cell-based. Conditions: 10µM retigabine.

Read-outs that look alike come from different tables or passages of the source.

T1 sequence (O43526 1-844 isoform O43526-3): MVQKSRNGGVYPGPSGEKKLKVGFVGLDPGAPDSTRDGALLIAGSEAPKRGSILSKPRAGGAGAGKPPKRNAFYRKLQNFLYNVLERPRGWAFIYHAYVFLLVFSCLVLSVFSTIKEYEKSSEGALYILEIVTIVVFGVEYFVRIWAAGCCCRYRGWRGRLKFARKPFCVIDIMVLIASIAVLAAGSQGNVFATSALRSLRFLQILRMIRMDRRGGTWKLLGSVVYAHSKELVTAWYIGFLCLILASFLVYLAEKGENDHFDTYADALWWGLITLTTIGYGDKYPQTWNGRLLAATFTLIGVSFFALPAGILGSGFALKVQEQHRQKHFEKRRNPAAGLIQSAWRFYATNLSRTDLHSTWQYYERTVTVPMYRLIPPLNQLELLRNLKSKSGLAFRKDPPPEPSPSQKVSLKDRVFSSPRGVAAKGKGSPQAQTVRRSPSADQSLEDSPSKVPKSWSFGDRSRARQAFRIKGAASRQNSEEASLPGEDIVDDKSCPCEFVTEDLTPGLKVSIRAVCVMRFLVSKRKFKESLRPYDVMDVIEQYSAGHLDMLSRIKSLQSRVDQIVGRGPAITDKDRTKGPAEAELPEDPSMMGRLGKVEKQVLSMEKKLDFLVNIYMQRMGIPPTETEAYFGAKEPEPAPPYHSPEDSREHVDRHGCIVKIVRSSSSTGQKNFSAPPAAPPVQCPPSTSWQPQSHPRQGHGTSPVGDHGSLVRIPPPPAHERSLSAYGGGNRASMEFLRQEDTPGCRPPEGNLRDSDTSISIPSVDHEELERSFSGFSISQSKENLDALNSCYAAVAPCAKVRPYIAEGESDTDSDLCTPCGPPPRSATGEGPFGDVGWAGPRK
T1 sequence (O43525 whole entry): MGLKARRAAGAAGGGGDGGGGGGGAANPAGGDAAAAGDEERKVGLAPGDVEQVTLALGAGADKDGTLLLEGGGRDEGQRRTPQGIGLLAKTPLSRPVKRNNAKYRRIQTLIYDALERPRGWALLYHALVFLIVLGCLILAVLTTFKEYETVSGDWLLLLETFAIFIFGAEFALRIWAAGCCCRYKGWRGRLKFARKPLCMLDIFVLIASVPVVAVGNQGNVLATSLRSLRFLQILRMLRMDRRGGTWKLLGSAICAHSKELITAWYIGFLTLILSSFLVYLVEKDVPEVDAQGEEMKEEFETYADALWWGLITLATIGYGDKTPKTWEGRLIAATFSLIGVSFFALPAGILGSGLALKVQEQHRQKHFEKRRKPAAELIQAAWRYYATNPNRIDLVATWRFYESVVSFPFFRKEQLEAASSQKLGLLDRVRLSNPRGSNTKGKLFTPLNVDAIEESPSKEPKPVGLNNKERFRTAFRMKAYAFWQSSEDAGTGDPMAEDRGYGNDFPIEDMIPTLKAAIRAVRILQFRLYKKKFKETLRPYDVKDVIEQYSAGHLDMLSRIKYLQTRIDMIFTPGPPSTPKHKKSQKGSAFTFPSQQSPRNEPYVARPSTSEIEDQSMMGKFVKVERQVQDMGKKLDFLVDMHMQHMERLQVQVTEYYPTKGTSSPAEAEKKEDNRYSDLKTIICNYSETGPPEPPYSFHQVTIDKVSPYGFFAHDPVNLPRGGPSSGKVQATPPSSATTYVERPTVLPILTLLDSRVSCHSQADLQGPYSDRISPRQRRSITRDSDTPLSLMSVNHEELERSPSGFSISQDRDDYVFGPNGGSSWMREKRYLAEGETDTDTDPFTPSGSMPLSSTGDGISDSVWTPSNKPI
T2 sequence (O43526 1-844 isoform O43526-3): as the sequence (O43526 1-844 isoform O43526-3) above

With `CCOC(=O)Nc1ccc(NCc2ccc(F)cc2)cc1N` [retigabine, 2-amino-4-(4-fluorobenzylamino)-1-ethoxycarbonylaminobenzene], the values for the ED50 in test [1] and in test [3] were 6.2 mg/kg and 4.5 mg/kg, respectively. Further, the “hyperpolarising shift in the threshold for KCNQ current activation” value in test [2] (10µM retigabine, oocytes expressing equimolar KCNQ2 plus KCNQ3, n=5) was determined as 20 mV. Further, the fold induction at 10 µM in test [2] (test potential -50mV, n=5) amounted to 7.1; in test [2] (test potential -60mV, n=5) it was 8; in test [2] (test potential -70mV, n=5), 6.2. Further, the “increase of the rate of current activation” value worked out at 3 fold in test [2] (test potential -30mV) and 15 fold in test [2] (test potential -40mV). For the same compound, in test [2] (test potentials -30mV, -40mV after 1s prepulse from -100mV to +40mV), the “KCNQ2/3 tail current deactivation” value was “deactivation does not occur”. Further, the “rate of KCNQ2/3 channel deactivation in comparison to control” value in test [2] (test potentials -50mV to -110mV after 1s prepulse from -100mV to +40mV) was “significantly slowed”. Moreover, the 50% effective concentration (EC50) in test [4] came to 5.2 µM. In addition, the Hill slope in test [4] (hyperpolarisation of oocytes held under current clamp) worked out at 1.1 ± 0.1. Further, on KCNQ2 (at -40mV, control 132+/-16ms), the “mean delay (rate of current activation)” value turned out to be 75 ± 7 ms. Further, at KCNQ2 (at -50mV, n=7, control = 145+/-34nA), the KCNQ current amplitude is 501+/-116 nA. Moreover, on KCNQ2 (oocytes expressing KCNQ2 alone), the “hyperpolarising shift in the threshold for KCNQ2 current activation” value is reported as 20 mV.
